Read-outs that look alike come from different tables or passages of the source.
What was measured:
Assay in all cases: stopped-flow absorption titration
Assay type in all cases: binding
BesC [1] = biological target: T1, BesC (Streptantibioticus cattleyicolor, UniProt F8JJ25)
BesC [2] = biological target: T1, BesC; remark: listed apart in the source
BesC [3] = biological target: T1, BesC; remark: listed apart in the source

T1 sequence (F8JJ25 whole entry): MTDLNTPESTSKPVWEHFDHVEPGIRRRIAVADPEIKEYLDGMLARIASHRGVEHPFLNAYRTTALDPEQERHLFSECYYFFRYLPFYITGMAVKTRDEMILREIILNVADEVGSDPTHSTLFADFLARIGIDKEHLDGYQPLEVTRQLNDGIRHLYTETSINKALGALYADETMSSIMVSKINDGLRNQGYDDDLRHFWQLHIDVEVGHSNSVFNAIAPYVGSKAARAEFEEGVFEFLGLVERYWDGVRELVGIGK

## NCCCC[C@H](N)C(=O)O [L-Lys]
BesC [1]
  Kd: 300 ± 100 µM

## NCCSC[C@H](N)C(=O)O [4-thia-L-Lys, S-(2-aminoethyl)-L-cysteine]
BesC [2]
  Kd: < 30 µM

## N[C@@H](CCCCO)C(=O)O [6-OH-L-Nle]
BesC [3]
  Kd: 10000 ± 1000 µM

Reference: paper PMC9047515 (Biochemistry, 2022)
